Data taken from patent US8927506B2, “Acetates of 2-deoxy monosaccharides with anticancer activity” (Board of Regents, The University of Texas System, priority 2008, dated 2015).

Experiments:
[1] = Preliminary biodistribution / pharmacokinetic study by oral gavage, 2-DG content in plasma and brain by LC/MS/MS; assay type: in vivo; details: CD-1 mice
Excerpt: Analytical methodologies (LC/MS/MS) were developed that are capable of quantifying these acetate sugars and the resulting liberation of 2-DG in various biomatrices (plasma and brain tissue). Using this analytical method preliminary biodistribution studies were undertaken in CD-1 mice to examine the pharmacokinetics of these novel agents.
Briefly, four animals per treatment group were given equivalent doses of either 2-DG, the compound of Example 6 (6-O-acetate of 2-DG) or the compound of Example 4 (4,6-di-O-acetate of 2-DG) by oral gavage using the same vehicle. Individual groups of animals were then sacrificed at 0.25, 0.5, 1, 2 and 4 hours following dose administration. From each animal plasma and brain tissues were harvested and then analyzed for 2-DG content by LC/mass spectrometry.

[2] = test system: pancreatic Colo357-FG cell line; test: In vitro activity in pancreatic Colo357-FG cell line; assay type: cell-based; details: COLO 357/FG; Colo357FG pancreatic cell line; concentration reducing cell viability to half
Excerpt: As used herein, reference to “IC50” is intended to refer to the concentration of a compound or composition that reduces the viability of cells to half the original level. In broader terms, IC50 can refer to half the maximal inhibitory concentration of a substance for inhibiting various biological processes.
In vitro activity in pancreatic Colo357-FG cell line is provided below in Table 1.

SMILES	highest attained brain tissue concentration of 2-DG ([1]; at 2 hrs after administration) [μg/gm]	IC50 [2] [mM]	duration of active concentrations of 2-DG at the site of action (brain) relative to 2-DG alone ([1]; brain)
OCC1OC(O)CC(O)C1O (stereo not shown) [Example 2-DG, 2-deoxy-glucose, reference compound]	12	9.7	
CC(=O)OC1CC(O)C(O)C(CO)O1 [Example 1, 1-O-Acetyl-2-deoxy-D-glucose]		11.9	
CC(=O)OCC1OC(OC(C)=O)CC(O)C1O (stereo not shown) [Example 3]		17.2	

Continued, values first:

highest attained brain tissue concentration of 2-DG ([1]; at 2 hrs after administration) [μg/gm]	IC50 [2] [mM]	duration of active concentrations of 2-DG at the site of action (brain) relative to 2-DG alone ([1]; brain)	SMILES
	1.7		CC(=O)OCC1OC(O)CC(O)C1OC(C)=O [Example 4, 4,6-Di-O-acetyl-2-deoxy-D-glucose]
		more than twice as long	CC(=O)OCC1OC(O)CC(O)C1O [Example 6, 6-O-acetyl-2-deoxy-D-glucose]
	1.6		CC(=O)OCC1OC(O)CC(OC(C)=O)C1O (stereo not shown) [Example 5]
